{
  "source": "ChEMBL document CHEMBL1201862",
  "about": "“PubChem BioAssay data set” (2004)",
  "assay_in_all_cases": "DTP human tumour cell line panel, 48 h",
  "key": {"786-0": {"tested_on": "786-0"}, "A498": {"tested_on": "A498"}, "A549": {"tested_on": "A549"}, "ACHN": {"tested_on": "ACHN"}, "CCRF-CEM": {"tested_on": "CCRF-CEM"}, "COLO 205": {"tested_on": "COLO 205"}, "DU-145": {"tested_on": "DU-145"}, "EKVX": {"tested_on": "EKVX"}, "HCC 2998": {"tested_on": "HCC 2998"}, "HCT-116": {"tested_on": "HCT-116"}, "HCT-15": {"tested_on": "HCT-15"}, "HL-60": {"tested_on": "HL-60"}, "HOP-62": {"tested_on": "HOP-62"}, "HOP-92": {"tested_on": "HOP-92"}, "HT-29": {"tested_on": "HT-29"}, "Hs-578T": {"tested_on": "Hs-578T"}, "IGROV-1": {"tested_on": "IGROV-1"}, "K562": {"tested_on": "K562"}, "KM12": {"tested_on": "KM12"}, "LOX IMVI": {"tested_on": "LOX IMVI"}, "M14": {"tested_on": "M14"}, "MCF7": {"tested_on": "MCF7"}, "MDA-MB-231": {"tested_on": "MDA-MB-231"}, "MDA-MB-435": {"tested_on": "MDA-MB-435"}, "MOLT-4": {"tested_on": "MOLT-4"}, "Malme-3M": {"tested_on": "Malme-3M"}, "NCI-H226": {"tested_on": "NCI-H226"}, "NCI-H23": {"tested_on": "NCI-H23"}, "NCI-H460": {"tested_on": "NCI-H460"}, "NCI/ADR-RES": {"tested_on": "NCI/ADR-RES"}, "OVCAR-4": {"tested_on": "OVCAR-4"}, "OVCAR-5": {"tested_on": "OVCAR-5"}, "OVCAR-8": {"tested_on": "OVCAR-8"}, "RPMI-8226": {"tested_on": "RPMI-8226"}, "RXF 393": {"tested_on": "RXF 393"}, "SF-268": {"tested_on": "SF-268"}, "SF-295": {"tested_on": "SF-295"}, "SF-539": {"tested_on": "SF-539"}, "SK-MEL-28": {"tested_on": "SK-MEL-28"}, "SK-MEL-5": {"tested_on": "SK-MEL-5"}, "SK-OV-3": {"tested_on": "SK-OV-3"}, "SN12C": {"tested_on": "SN12C"}, "SNB-19": {"tested_on": "SNB-19"}, "SNB-75": {"tested_on": "SNB-75"}, "SR": {"tested_on": "SR"}, "SW-620": {"tested_on": "SW-620"}, "T47D": {"tested_on": "T47D"}, "TK-10": {"tested_on": "TK-10"}, "U-251": {"tested_on": "U-251"}, "UACC-257": {"tested_on": "UACC-257"}, "UACC-62": {"tested_on": "UACC-62"}, "UO-31": {"tested_on": "UO-31"}},
  "note": "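In this assay, cells in 96-well plates receive the compound at five concentrations for 48 hours. Endpoints are linearly interpolated between the surrounding concentrations. Abbreviation: GI50, concentration required for 50% inhibition of growth.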 Active and inactive are the calls of the source. Cut-off read from the data, not from the text of the source: active = GI50 up to about 1.1 µM and inactive = higher.",
  "data": [
    {"smiles": "C=CCCCCCCCCC(=O)ON(Cc1ccc(O)c(OC)c1)C(=O)C(F)(F)F", "values": [
      {"measurement": "GI50", "setting": "786-0", "value": "> 100 µM (inactive)"},
      {"measurement": "GI50", "setting": "A498", "value": "44.1 µM (inactive)"},
      {"measurement": "GI50", "setting": "A549", "value": "> 100 µM (inactive)"},
      {"measurement": "GI50", "setting": "ACHN", "value": "> 100 µM (inactive)"},
      {"measurement": "GI50", "setting": "CCRF-CEM", "value": "10 µM (inactive)"},
      {"measurement": "GI50", "setting": "COLO 205", "value": "> 100 µM (inactive)"},
      {"measurement": "GI50", "setting": "DU-145", "value": "> 100 µM (inactive)"},
      {"measurement": "GI50", "setting": "EKVX", "value": "> 100 µM (inactive)"},
      {"measurement": "GI50", "setting": "HCC 2998", "value": "> 100 µM (inactive)"},
      {"measurement": "GI50", "setting": "HCT-116", "value": "> 100 µM (inactive)"},
      {"measurement": "GI50", "setting": "HCT-15", "value": "> 100", "unit": "µM"},
      {"measurement": "GI50", "setting": "HL-60", "value": "12.4 µM (inactive)"},
      {"measurement": "GI50", "setting": "HOP-62", "value": "> 100 µM (inactive)"},
      {"measurement": "GI50", "setting": "HOP-92", "value": "34.2 µM (inactive)"},
      {"measurement": "GI50", "setting": "HT-29", "value": "> 100 µM (inactive)"},
      {"measurement": "GI50", "setting": "Hs-578T", "value": "10.8 µM (inactive)"},
      {"measurement": "GI50", "setting": "IGROV-1", "value": "> 100 µM (inactive)"},
      {"measurement": "GI50", "setting": "K562", "value": "75 µM (inactive)"},
      {"measurement": "GI50", "setting": "KM12", "value": "52.5 µM (inactive)"},
      {"measurement": "GI50", "setting": "LOX IMVI", "value": "> 100 µM (inactive)"},
      {"measurement": "GI50", "setting": "M14", "value": "> 100 µM (inactive)"},
      {"measurement": "GI50", "setting": "MCF7", "value": "> 100 µM (inactive)"},
      {"measurement": "GI50", "setting": "MDA-MB-231", "value": "> 100 µM (inactive)"},
      {"measurement": "GI50", "setting": "MDA-MB-435", "value": "> 100 µM (inactive)"},
      {"measurement": "GI50", "setting": "MOLT-4", "value": "31.3 µM (inactive)"},
      {"measurement": "GI50", "setting": "Malme-3M", "value": "> 100 µM (inactive)"},
      {"measurement": "GI50", "setting": "NCI-H226", "value": "21.4 µM (inactive)"},
      {"measurement": "GI50", "setting": "NCI-H23", "value": "> 100 µM (inactive)"},
      {"measurement": "GI50", "setting": "NCI-H460", "value": "> 100 µM (inactive)"},
      {"measurement": "GI50", "setting": "NCI/ADR-RES", "value": "> 100 µM (inactive)"},
      {"measurement": "GI50", "setting": "OVCAR-4", "value": "> 100 µM (inactive)"},
      {"measurement": "GI50", "setting": "OVCAR-5", "value": "> 100 µM (inactive)"},
      {"measurement": "GI50", "setting": "OVCAR-8", "value": "> 100 µM (inactive)"},
      {"measurement": "GI50", "setting": "RPMI-8226", "value": "> 100 µM (inactive)"},
      {"measurement": "GI50", "setting": "RXF 393", "value": "> 100 µM (inactive)"},
      {"measurement": "GI50", "setting": "SF-268", "value": "> 100 µM (inactive)"},
      {"measurement": "GI50", "setting": "SF-295", "value": "> 100 µM (inactive)"},
      {"measurement": "GI50", "setting": "SF-539", "value": "> 100 µM (inactive)"},
      {"measurement": "GI50", "setting": "SK-MEL-28", "value": "> 100 µM (inactive)"},
      {"measurement": "GI50", "setting": "SK-MEL-5", "value": "> 100 µM (inactive)"},
      {"measurement": "GI50", "setting": "SK-OV-3", "value": "> 100 µM (inactive)"},
      {"measurement": "GI50", "setting": "SN12C", "value": "> 100 µM (inactive)"},
      {"measurement": "GI50", "setting": "SNB-19", "value": "> 100 µM (inactive)"},
      {"measurement": "GI50", "setting": "SNB-75", "value": "> 100 µM (inactive)"},
      {"measurement": "GI50", "setting": "SR", "value": "22.9 µM (inactive)"},
      {"measurement": "GI50", "setting": "SW-620", "value": "> 100 µM (inactive)"},
      {"measurement": "GI50", "setting": "T47D", "value": "72.1 µM (inactive)"},
      {"measurement": "GI50", "setting": "TK-10", "value": "> 100 µM (inactive)"},
      {"measurement": "GI50", "setting": "U-251", "value": "> 100 µM (inactive)"},
      {"measurement": "GI50", "setting": "UACC-257", "value": "> 100 µM (inactive)"},
      {"measurement": "GI50", "setting": "UACC-62", "value": "49 µM (inactive)"},
      {"measurement": "GI50", "setting": "UO-31", "value": "10.9 µM (inactive)"}
    ]}
  ]
}
